Results from US20010049373A1, “Materials and methods for killing nematodes and nematode eggs” (priority 2000, published 2001).

How the values were obtained:
Caenorhabditis elegans [1] = assay: C. elegans L1 larvae dose-response, 5 day visual viability score (Examples 2 and 7); type: in vivo; parameters: key: Dead: only stiff L1s (no movement); Dead (L4): worms are dead, but at a later larval stage; majority of worms are L1 (based on size); majority of worms are L2 (based on size); majority of worms are L3 (based on size); majority of worms are L4 (based on size); AD: majority of worms are adult; #AD: 5 adult worms or less; B!: sterile (0-25 progeny); B: low broodsize (25-100 progeny); ˜B: moderate broodsize (100-250 progeny); <: reduced broodsize (250-500 progeny); OK: no effect (˜1000+ progeny)
Method: Caenorhabditis elegans adults were grown on Nematode Growth Medium (NGM) until they produced eggs, then the adults were removed.
The eggs were allowed to hatch, and the L1 larvae collected. See The Neniatode Caenorhabditis elegans (1988) Cold Spring Harbor Laboratory Press. Using a Matrix Programmable Pipette, the L1s were distributed into 96-well tissue culture plates, 20 L1 in 50 μl NGM per well. Antibiotic/Antimyotic was added to each well, and 1% by weight E. coli strain HB101. The subject anthelmintic compounds were stored at 5 mM in 100% DMSO. 0.7 μl of compounds 1-31 were added to the left-most column of wells to yield a final concentration of 70 μM in 1.4% DMSO, with 1.4% DMSO only as the control. The compounds were then subjected to 5 more 3-fold dilutions from left to right to yield 6 column concentrations of 70 μM, 23.3 μM, 7.8 μM, 2.6 μM, 0.9 μM, and 0.3 μM. Plates were stored in air-tight Rubbermaid plastic boxes at 20° C. The nematodes had cleared all control wells by day 4, and nematode viability was scored by visual examination under a 100× dissecting microscope on day 5. A visual viability scoring system was used as follows:
If several classes of worms exist in a well, then all classes are scored. If adults are present, then the brood score is also recorded. Thus, “L1/L2” would mean a mixture of L1's and L2's are present in the well. “L4/#AD/B” would mean that a mixture of L4's and adults are resent in the well. The “#AD” would mean that there are 6 or less adults, and the “B” would mean that there were 100 progeny or less.
Column VI has a compound concentration of 70 μM with sequential 3-fold dilutions reported in columns V2, V3, V4, V5, and V6, respectively, such that the V6 concentration was 0.3 μM.
(§1) The nematicidal activity of anthelmintic Compositions 48-118 were determined in accordance with the procedure outlined in Example 2.

Caenorhabditis elegans [2] = assay: HTS runs (initial and follow-up): mOD, % Run and visual score (Table 3); type: in vivo; parameters: key to Initial HTS Run Visual Score / Follow-up HTS Run Visual Score: Dead: only stiff L1s (no movement); Dead (L4): worms are dead, but at a later larval stage; majority of worms are L1 (based on size); majority of worms are L2 (based on size); majority of worms are L3 (based on size); majority of worms are L4 (based on size); AD: majority of worms are adult; #AD: 5 adult worms or less; B!: sterile (0-25 progeny); B: low broodsize (25-100 progeny); ˜B: moderate broodsize (100-250 progeny); <: reduced broodsize (250-500 progeny); OK: no effect (˜1000+ progeny)
Method: as §1

[3] = 0.3 μM, viability scored day 5, Table 1
[4] = 2.6 μM, viability scored day 5, Table 1
[5] = 23.3 μM, viability scored day 5, Table 1
[6] = 70 μM, viability scored day 5, Table 1
[7] = 7.8 μM, viability scored day 5, Table 1
[8] = 0.9 μM, viability scored day 5, Table 1
[9] = 0.3 μM (procedure of Example 2), day 5, Table 3
[10] = 0.9 μM (procedure of Example 2), day 5, Table 3
[11] = 7.8 μM (procedure of Example 2), day 5, Table 3
[12] = 23.3 μM (procedure of Example 2), day 5, Table 3
[13] = 70 μM (procedure of Example 2), day 5, Table 3
[14] = 2.6 μM (procedure of Example 2), day 5, Table 3

Compound	5 Day Visual Score V6 (Caenorhabditis elegans [1]; [3])	5 Day Visual Score V4 (Caenorhabditis elegans [1]; [4])	5 Day Visual Score V2 (Caenorhabditis elegans [1]; [5])	5 Day Visual Score V1 (Caenorhabditis elegans [1]; [6])	5 Day Visual Score V3 (Caenorhabditis elegans [1]; [7])	Follow-up HTS Run % Run (Caenorhabditis elegans [2])	Follow-up HTS Run mOD (Caenorhabditis elegans [2])	Initial HTS Run % Run (Caenorhabditis elegans [2])	Initial HTS Run Visual Score (Caenorhabditis elegans [2])	Initial HTS Run mOD (Caenorhabditis elegans [2])	5 Day Visual Score V6 (Caenorhabditis elegans [1]; [9])	5 Day Visual Score V5 (Caenorhabditis elegans [1]; [10])	other results
O=C(Nc1ccc(OC(F)(F)F)cc1)NC1CCC(c2nc(-c3ccccc3)no2)CC1 (centres unmarked) [AKC 107]	L2/Dead(L	Dead(L4)	Dead(L2/L3)	Dead									
O=C(Nc1ccc(Br)cc1)N1CCC(c2nc(-c3ccccc3)no2)CC1 [AKC 108]		L1	Dead	Dead	L1								
O=C(NCCc1ccccc1F)C1C(c2ccccc2Cl)=NOC1c1ccc(-c2ccccc2)cc1 (centres unmarked) [AKC 110]	L1	L1	L1	L1	L1								5 Day Visual Score V5 (Caenorhabditis elegans [1]; [8]): L1
COc1ccccc1-c1noc(C(C)CNC(=O)Nc2ccc(OC(F)(F)F)cc2)n1 (centres unmarked) [AKC 111]	OK (no effect (˜1000+ progeny))	Dead(L3/L	Dead	Dead	L2								
Cc1ccc(-c2noc(C3CCC(CNC(=O)Nc4ccc(OC(F)(F)F)cc4)CC3)n2)cc1C (centres unmarked) [AKC 112]	OK (no effect (˜1000+ progeny))												5 Day Visual Score V5 (Caenorhabditis elegans [1]; [8]): #AD/˜B
O=C(NCC1CCC(c2nc(-c3ccccc3)no2)CC1)Nc1ccc(OC(F)(F)F)cc1 (centres unmarked) [AKC 113]	L4/#AD/B	Dead(L2/L	Dead	Dead	Dead								
O=C(Nc1ccc(Br)cc1)NC1CCC(c2nc(-c3ccccc3)no2)CC1 (centres unmarked) [AKC 114]	B (low broodsize (25-100 progeny))	L3/Dead(L	L3/Dead(L4)	Dead	L3								
O=C(NCCCCCc1nc(-c2ccccc2)no1)Nc1ccc(OC(F)(F)F)cc1 [AKC 115]		Dead(L2)	Dead(L2/L3)	Dead	L2/Dead(L2)								5 Day Visual Score V5 (Caenorhabditis elegans [1]; [8]): Dead(L2/L
CC(C)(C)C1=NOC(c2ccc(-c3ccccc3)cc2)C1C(=O)NCCc1ccccc1F (centres unmarked) [AKC 120]	OK (no effect (˜1000+ progeny))			L1	L1								5 Day Visual Score V5 (Caenorhabditis elegans [1]; [8]): #AD/˜B
COc1ccc(C2=NOC(c3ccc(-c4ccccc4)cc3)C2C(=O)NCCc2ccccc2F)cc1 (centres unmarked) [AKC 121]	< (reduced broodsize (250-500 progeny))	#AD/˜B	L1	L1									
CCOc1ccc(C2ON=C(c3ccc(F)cc3)C2C(=O)NCCc2ccc(F)cc2)cc1 (centres unmarked) [AKC 122]	OK (no effect (˜1000+ progeny))		L1	Dead									
CCOc1ccc(C2ON=C(c3ccc(N(C)C)cc3)C2C(=O)NCCc2ccc(F)cc2)cc1 (centres unmarked) [AKC 123]	#AD/˜B	< (reduced broodsize (250-500 progeny))		L1									
CCOc1cccc(C2ON=C(c3ccccc3OCC)C2C(=O)NCCc2ccc(OC)c(OCC)c2)c1 (centres unmarked) [AKC 124]	L4/#AD/B	L4/#AD/B											5 Day Visual Score V5 (Caenorhabditis elegans [1]; [8]): L4/#AD/B
CCOc1cccc(C2ON=C(c3ccccc3OCC)C2C(=O)NCc2ccc(OC(F)(F)F)cc2)c1 (centres unmarked) [AKC 125]	< (reduced broodsize (250-500 progeny))	L2	L2/Dead(L4)	L2/Dead(L3)	L2								
CCC1CCCCN1c1cc(Oc2ccc(-c3ccccc3)cc2)ncn1 (centres unmarked) [AKC 148]						126%	170 mOD	143%	Dead-Black Husk	278 mOD	˜B (moderate broodsize (100-250 progeny))	˜B (moderate broodsize (100-250 progeny))	Follow-up HTS Run Visual Score (Caenorhabditis elegans [2]): Dead; 5 Day Visual Score V3 (Caenorhabditis elegans [1]; [11]): Dead; 5 Day Visual Score V2 (Caenorhabditis elegans [1]; [12]): Dead; 5 Day Visual Score V1 (Caenorhabditis elegans [1]; [13]): Dead
CC(CCc1ccccc1)Nc1cc(Oc2ccc(-c3ccccc3)cc2)ncn1 (centres unmarked) [AKC 149]						100%	135 mOD	133%	Dead	259 mOD	< (reduced broodsize (250-500 progeny))	< (reduced broodsize (250-500 progeny))	Follow-up HTS Run Visual Score (Caenorhabditis elegans [2]): Dead; 5 Day Visual Score V3 (Caenorhabditis elegans [1]; [11]): Dead; 5 Day Visual Score V2 (Caenorhabditis elegans [1]; [12]): Dead; 5 Day Visual Score V1 (Caenorhabditis elegans [1]; [13]): Dead
FC(F)(F)c1ccccc1CNc1cc(Oc2ccc(-c3ccccc3)cc2)ncn1 [AKC 339]						113%	153 mOD	142%	1AD/B	277 mOD	OK (no effect (˜1000+ progeny))	OK (no effect (˜1000+ progeny))	Follow-up HTS Run Visual Score (Caenorhabditis elegans [2]): B (low broodsize (25-100 progeny)); 5 Day Visual Score V4 (Caenorhabditis elegans [1]; [14]): OK (no effect (˜1000+ progeny)); 5 Day Visual Score V3 (Caenorhabditis elegans [1]; [11]): OK (no effect (˜1000+ progeny)); 5 Day Visual Score V2 (Caenorhabditis elegans [1]; [12]): OK (no effect (˜1000+ progeny)); 5 Day Visual Score V1 (Caenorhabditis elegans [1]; [13]): OK (no effect (˜1000+ progeny))
c1ccc2c(c1)CCN(c1cc(Oc3ccc4ccccc4c3)ncn1)C2 [AKC 342]						92%	124 mOD	106%	L4/AD/B!	207 mOD	OK (no effect (˜1000+ progeny))	OK (no effect (˜1000+ progeny))	Follow-up HTS Run Visual Score (Caenorhabditis elegans [2]): B!-Healthy; 5 Day Visual Score V4 (Caenorhabditis elegans [1]; [14]): ˜B (moderate broodsize (100-250 progeny))
CN(Cc1ccccc1)c1cc(Oc2cccc(F)c2)ncn1 [AKC 344]						119%	161 mOD	131%	L2	256 mOD	OK (no effect (˜1000+ progeny))	OK (no effect (˜1000+ progeny))	5 Day Visual Score V4 (Caenorhabditis elegans [1]; [14]): OK (no effect (˜1000+ progeny)); 5 Day Visual Score V2 (Caenorhabditis elegans [1]; [12]): Dead; 5 Day Visual Score V1 (Caenorhabditis elegans [1]; [13]): Dead
Fc1ccc(Oc2cc(N3CCc4ccccc4C3)ncn2)cc1 [AKC 345]						114%	154 mOD	135%	L1	264 mOD	OK (no effect (˜1000+ progeny))	OK (no effect (˜1000+ progeny))	5 Day Visual Score V4 (Caenorhabditis elegans [1]; [14]): OK (no effect (˜1000+ progeny)); 5 Day Visual Score V3 (Caenorhabditis elegans [1]; [11]): L4; 5 Day Visual Score V2 (Caenorhabditis elegans [1]; [12]): L1; 5 Day Visual Score V1 (Caenorhabditis elegans [1]; [13]): L1
NS(=O)(=O)c1ccc(NC(=O)CN2CCCC(NC(=O)c3cc4ccccc4o3)C2)cc1 (centres unmarked) [AKC 348]						123%	166 mOD	126%	Dead	246 mOD	B (low broodsize (25-100 progeny))	< (reduced broodsize (250-500 progeny))	5 Day Visual Score V3 (Caenorhabditis elegans [1]; [11]): Dead; 5 Day Visual Score V2 (Caenorhabditis elegans [1]; [12]): Dead; 5 Day Visual Score V1 (Caenorhabditis elegans [1]; [13]): Dead
O=C(NCCc1ccccc1F)C1C(c2ccc(F)cc2)=NOC1c1ccc(-c2ccccc2)cc1 (centres unmarked) [AKC 2153]			L1	L1									
